According to patent US8623879B2, “1-heterocyclyl-1,5-dihydro-pyrazolo[3,4-D] pyrimidin-4-one derivates and their use as PDE9A modulators” (Boehringer Ingelheim International GmbH, priority 2008, dated 2014):

Assays:
[1] = target: human PDE9A (Homo sapiens, UniProt O76083); conditions: concentrations of up to 100 micromolar; cited from earlier work
[2] = target: T1, Murine PDE9A (Mus musculus, UniProt O70628); conditions: concentrations below 200 micromolar; cited from earlier work
T1 sequence (O70628 1-534): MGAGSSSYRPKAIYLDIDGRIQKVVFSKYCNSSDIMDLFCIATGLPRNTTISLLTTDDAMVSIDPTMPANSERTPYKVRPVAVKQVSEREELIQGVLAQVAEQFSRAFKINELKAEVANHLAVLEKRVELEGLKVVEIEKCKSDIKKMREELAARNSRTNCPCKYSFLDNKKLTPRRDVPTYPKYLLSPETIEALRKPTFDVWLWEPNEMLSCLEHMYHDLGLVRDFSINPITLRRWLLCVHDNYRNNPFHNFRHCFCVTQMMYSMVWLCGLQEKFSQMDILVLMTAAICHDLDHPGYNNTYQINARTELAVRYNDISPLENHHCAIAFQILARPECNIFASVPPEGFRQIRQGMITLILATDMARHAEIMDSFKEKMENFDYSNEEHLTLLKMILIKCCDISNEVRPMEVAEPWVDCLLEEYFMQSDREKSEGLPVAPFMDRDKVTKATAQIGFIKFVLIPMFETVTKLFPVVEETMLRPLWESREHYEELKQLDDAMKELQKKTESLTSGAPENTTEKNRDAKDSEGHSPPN

[3] = target: T2, human PDE9A2 (Homo sapiens, UniProt O76083); assay: PDE9A2 enzymatic activity assay (scintillation proximity assay, SPA); type: biochemical; conditions: for inhibition at 10 µM: read-out: % inhibition of PDE9A2 (at 10 micromolar concentration), 10 micromolar concentration, values above 100% adjusted to 100%; for IC50: reported only as range 1-100 or 101-1200 nanomolar, specific value lies within range, read-out: IC50 within range [nanomolar (nM)]
T2 construct: made in house; host or cells: Sf9 insect cells (infected); crude lysate used as enzyme source
T2 sequence (O76083 1-533 isoform O76083-2): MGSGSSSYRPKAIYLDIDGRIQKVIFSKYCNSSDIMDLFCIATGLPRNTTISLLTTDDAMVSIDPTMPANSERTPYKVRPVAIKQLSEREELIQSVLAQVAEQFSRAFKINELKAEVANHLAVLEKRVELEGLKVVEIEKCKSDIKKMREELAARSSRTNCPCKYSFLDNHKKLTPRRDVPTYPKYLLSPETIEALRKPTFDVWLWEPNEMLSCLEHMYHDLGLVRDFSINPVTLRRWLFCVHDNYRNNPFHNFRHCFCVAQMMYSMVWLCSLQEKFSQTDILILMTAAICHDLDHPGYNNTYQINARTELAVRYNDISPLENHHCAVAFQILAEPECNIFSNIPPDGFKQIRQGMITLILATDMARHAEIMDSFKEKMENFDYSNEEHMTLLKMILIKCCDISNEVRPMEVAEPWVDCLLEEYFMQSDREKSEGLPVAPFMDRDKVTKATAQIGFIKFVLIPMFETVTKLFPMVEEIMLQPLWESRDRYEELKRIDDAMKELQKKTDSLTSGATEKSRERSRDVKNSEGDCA

human PDE9A, sequence (O76083 whole entry): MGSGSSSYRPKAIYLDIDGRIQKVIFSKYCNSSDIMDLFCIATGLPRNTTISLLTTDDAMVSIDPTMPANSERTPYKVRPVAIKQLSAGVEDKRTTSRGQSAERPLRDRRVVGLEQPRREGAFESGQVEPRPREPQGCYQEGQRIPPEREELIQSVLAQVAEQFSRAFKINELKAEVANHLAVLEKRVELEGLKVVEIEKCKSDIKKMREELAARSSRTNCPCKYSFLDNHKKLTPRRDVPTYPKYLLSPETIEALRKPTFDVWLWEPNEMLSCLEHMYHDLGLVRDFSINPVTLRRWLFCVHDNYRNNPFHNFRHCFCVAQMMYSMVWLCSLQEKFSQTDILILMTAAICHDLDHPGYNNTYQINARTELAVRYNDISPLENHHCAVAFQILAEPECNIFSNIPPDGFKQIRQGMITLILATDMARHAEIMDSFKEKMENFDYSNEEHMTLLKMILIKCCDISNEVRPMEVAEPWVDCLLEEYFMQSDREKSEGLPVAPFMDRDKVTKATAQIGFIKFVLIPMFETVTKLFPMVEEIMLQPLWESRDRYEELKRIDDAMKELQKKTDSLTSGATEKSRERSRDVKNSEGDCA

SMILES	inhibition on the isolated enzyme [1]	inhibition of murine PDE9A [2]	inhibition at 10 µM [3] [%]	IC50 [3] [nM]
CCOC(=O)C1=C[C@]2(CC)CCCN3CCc4c(n1c1ccccc41)[C@@H]32 [vinpocetine]	no inhibition			
CC(C)Cn1c(=O)n(C)c(=O)c2[nH]cnc21 [IBMX]	no inhibition	not inhibited		
OCCN(CCO)c1nc(N2CCCCC2)c2nc(N(CCO)CCO)nc(N3CCCCC3)c2n1 [dipyridamole]	no inhibition			
COc1ccc(C2CNC(=O)C2)cc1OC1CCCC1 (centres unmarked) [rolipram]	no inhibition			
CC(=O)Nc1ccc(-c2c[nH]c(=O)cn2)cc1 [SKF94120]	no inhibition			
O=c1[nH]c(CC2CCCCC2)nc2c1cnn2C1CCOC1 (racemic) [Example 75]			98	1 to 100
CCC(Cc1nc2c(cnn2C2CCCN(C(C)=O)C2)c(=O)[nH]1)C(F)(F)F (mixture of isomers) [Example 173]			86	101 to 1200
O=c1[nH]c(Cc2ccccc2O)nc2c1cnn2C1CCOCC1 [Example 28]			98	1 to 100
CC(=O)N1CCC(n2ncc3c(=O)[nH]c(Cc4ccccc4)nc32)C1 (racemic) [Example 172]			100	1 to 100
CC1COCCC1n1ncc2c(=O)[nH]c(CC3CCCC3)nc21 (racemic) [Example 132-2]			100	1 to 100
O=c1[nH]c(CC2CCCC2)nc2c1cnn2C1CCOCC1 [Example 134]			99	1 to 100
O=c1[nH]c(CC2CC2)nc2c1cnn2C1CCOC1 (racemic) [Example 80]			94	1 to 100
CN(C)C(=O)N1CCCC(n2ncc3c(=O)[nH]c(CC4CCCC4)nc32)C1 (racemic) [Example 160]			96	1 to 100
N#Cc1cccc(Cc2nc3c(cnn3C3CCOC3)c(=O)[nH]2)c1 (racemic) [Example 89]			95	101 to 1200
N#Cc1cccc(Cc2nc3c(cnn3C3CCCOC3)c(=O)[nH]2)c1 (racemic) [Example 98]			97	1 to 100
CC(=O)N1CCCC(n2ncc3c(=O)[nH]c(Cc4ccccc4F)nc32)C1 (racemic) [Example 187]			96	1 to 100
O=c1[nH]c(Cc2cccc(C(F)(F)F)c2)nc2c1cnn2C1CCCCO1 (racemic) [Example 147-3]			95	1 to 100
CC(C)(C)OC(=O)N1CCCC(n2ncc3c(=O)[nH]c(Cc4ccccc4)nc32)C1 (racemic) [Example 18]			99	1 to 100
